US10800815B2, “Kv1.3 potassium channel antagonists” (cgtx-Peptide Development GmbH, priority 2014, dated 2020)

Biological target: T1, hERG (Homo sapiens, UniProt Q12809)
T1 construct: expressed in transfected cells; host or cells: HEK cells stably expressing hERG
Experiment: Patchliner automated patch clamp of hERG currents in HEK cells, two-point screening (Example 2)
Type: cell-based
Conditions: for Normalized Block of hERG current: steady state at end of application
Procedure: To determine binding to Kv1.3, Jurkat cells endogenously expressing Kv1.3 were used. For binding to hERG, HEK cells stably expressing hERG were used.
Cell culture was performed using standard cell culture techniques. In brief, cells were grown on 10 cm culture dishes or T75 culture flasks in DMEM-based media. With a confluence of about 60-80%, cells were split every 2-3 days. For recordings on the Patchliner (Nanion), Jurkat cells were resuspended and then spinned in a centrifuge. Before spinning, HEK cells were treated with Trypsin, to detach them from the dish surface. After spinning, cells were resuspended in external recording buffer to a density of approximately 1-2 million cells per ml.
Internal recording solution: 50 mM KCl • 10 mM NaCl • 60 mM KF • 20 mM EGTA • 10 mM HEPES/KOH, pH 7.2, (Osm: ˜290 mOsm)
5 mM Mg-ATP and 0.3 mM Na-GTP were added fresh to the internal solution and pH adjusted to 7.2.
External recording buffer: 140 mM NaCl • 4 mM KCl • 1 mM MgCl2 • 2 mM CaCl2 • 5 mM D-Glucose monohydrate • 10 mM HEPES/NaOH pH 7.4, (Osm: ˜298 mOsm) Compounds
Electrophysiological recordings were performed with a Patchliner, recording up to 8 channels, simultaneously. The Patchliner is an automated patch clamp system utilizing borosilicate glass chips (NPC-16) for planar patch clamp, and operating via the PatchControlHT software. NPC-16 chips with a resistance of 3-5 MΩ for Jurkat cells and 2-3 MΩ for HEK cells were used for recordings. During recordings, cells were kept in a “cell hotel” where they were periodically pipetted up and down to maintain viability. […]
For pharmacology on hERG, peak amplitude at the 2nd −40 mV step (tail current) was calculated using online analysis functions in PatchMaster. The leak (calculated from the 1st step to −40 mV) was subtracted from this peak to calculate the true peak and these could be plotted as a function of time.
Values were exported to Excel to calculate concentration response curves in Igor. […] A Hill equation was fitted to estimate the IC50 for each compound and IC50 was calculated relative to maximum block. […]

T1 sequence (Q12809 whole entry): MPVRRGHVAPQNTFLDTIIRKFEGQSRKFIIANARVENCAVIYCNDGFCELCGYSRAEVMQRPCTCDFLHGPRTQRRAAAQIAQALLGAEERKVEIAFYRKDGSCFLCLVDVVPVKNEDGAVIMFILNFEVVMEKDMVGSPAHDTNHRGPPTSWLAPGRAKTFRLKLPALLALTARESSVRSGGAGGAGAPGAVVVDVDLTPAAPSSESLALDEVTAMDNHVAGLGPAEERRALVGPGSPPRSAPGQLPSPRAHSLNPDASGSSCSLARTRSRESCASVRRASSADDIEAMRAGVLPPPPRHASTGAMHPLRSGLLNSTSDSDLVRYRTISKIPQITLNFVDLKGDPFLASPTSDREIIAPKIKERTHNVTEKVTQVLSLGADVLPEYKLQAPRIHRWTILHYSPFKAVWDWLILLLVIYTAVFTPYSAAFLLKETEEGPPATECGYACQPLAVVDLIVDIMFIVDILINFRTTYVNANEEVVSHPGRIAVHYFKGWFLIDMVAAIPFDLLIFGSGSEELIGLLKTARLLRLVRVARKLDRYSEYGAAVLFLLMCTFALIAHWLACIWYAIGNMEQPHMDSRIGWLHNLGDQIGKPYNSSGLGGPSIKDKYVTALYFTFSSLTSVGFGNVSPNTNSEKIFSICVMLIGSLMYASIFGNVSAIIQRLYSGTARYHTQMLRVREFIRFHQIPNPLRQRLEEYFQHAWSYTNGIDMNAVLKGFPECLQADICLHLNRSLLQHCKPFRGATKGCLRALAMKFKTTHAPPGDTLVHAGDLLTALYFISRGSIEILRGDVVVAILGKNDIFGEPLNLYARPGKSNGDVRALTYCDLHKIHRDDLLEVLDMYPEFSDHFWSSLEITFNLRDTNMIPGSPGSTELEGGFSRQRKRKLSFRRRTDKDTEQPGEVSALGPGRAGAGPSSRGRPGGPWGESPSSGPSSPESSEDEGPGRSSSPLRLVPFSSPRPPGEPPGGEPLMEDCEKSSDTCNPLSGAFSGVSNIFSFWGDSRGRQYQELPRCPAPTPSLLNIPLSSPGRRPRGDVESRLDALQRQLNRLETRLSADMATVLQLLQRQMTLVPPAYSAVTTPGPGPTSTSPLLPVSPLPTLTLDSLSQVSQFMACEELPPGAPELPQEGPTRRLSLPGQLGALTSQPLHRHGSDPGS

CC[C@H](C)[C@H](NC(=O)[C@@H](N)[C@@H](C)O)C(=O)N[C@H](C(=O)N[C@@H](CC(N)=O)C(=O)N[C@H](C(=O)N[C@@H](CCCCN)C(=O)N[C@H]1CSSC[C@@H]2NC(=O)[C@H](CCCCN)NC(=O)CNC(=O)[C@H](Cc3ccc(O)cc3)NC(=O)[C@@H]3CCCN3C(=O)[C@@H]3CSSC[C@@H](C(=O)O)NC(=O)[C@H](CCCNC(=N)N)NC(=O)[C@H](CC(N)=O)NC(=O)[C@@H]4CSSC[C@H](NC(=O)[C@@H]5CCCN5C(=O)[C@@H]5CCCN5C(=O)[C@H](CC(C)C)NC(=O)[C@H](CSSC[C@H](NC(=O)[C@H](CCCCN)NC(=O)[C@H](CCCNC(=N)N)NC(=O)[C@H](CC(N)=O)NC(=O)[C@H](CCSC)NC2=O)C(=O)N[C@@H](CCCCN)C(=O)N4)NC(=O)[C@H](CCC(N)=O)NC(=O)[C@H](CCCCN)NC(=O)[C@@H]2CCCN2C(=O)[C@H](CO)NC(=O)[C@H]([C@@H](C)O)NC1=O)C(=O)N[C@@H](CCCCN)C(=O)N[C@@H](C)C(=O)N[C@@H](CCC(N)=O)C(=O)N[C@@H]([C@@H](C)O)C(=O)NCC(=O)N3)C(C)C)[C@@H](C)CC [Compound 7]
Normalized Block of hERG current (5 μM): 0.04
Normalized Block of hERG current (10 μM): 0.07
effect on hERG current (hERG expressing HEK cells): only low effects
